Here are results for ten compounds from patent US10793547B2, “Modulator of the cystic fibrosis transmembrane conductance regulator, pharmaceutical compositions, methods of treatment, and process for making the modulator” (Vertex Pharmaceuticals Incorporated, priority 2016, dated 2020).

The target in data set [1] is T1, F508del-CFTR (Homo sapiens, UniProt P13569, DEL508-508).
T1 construct: expressed in transfected cells
The experiment in a line: Membrane potential optical (FLIPR) assay for F508del-CFTR modulators in NIH 3T3 cells. The note with it: NIH 3T3 cells expressing F508del; assay A1; read-out: CFTRdF508 Cor 3T3 FLIPR 384 CFTRdF508 MP 3T3 770 EC50. In kind it is cell-based. An excerpt: Membrane Potential Optical Methods for Assaying Properties of F508del-CFTR Modulators
The assay utilizes fluorescent voltage sensing dyes to measure changes in membrane potential using a fluorescent plate reader (e.g., FLIPR III, Molecular Devices, Inc.) as a readout for increase in functional F508del in NIH 3T3 cells. The driving force for the response is the creation of a chloride ion gradient in conjunction with channel activation and concurrent with compound treatment by a single liquid addition step after the cells have previously been loaded with a voltage sensing dye.
A1. Identification of F508del-CFTR Modulators
To identify modulators of F508del, a fluorescence based HTS assay format was developed. This HTS assay utilizes fluorescent voltage sensing dyes to measure changes in membrane potential on the FLIPR III as a measurement for increase in gating (conductance) of F508del NIH 3T3 cells. The driving force for the response is the creation of a chloride ion gradient in conjunction with channel activation and concurrent with compound treatment by a single liquid addition step after the cells have previously been loaded with a voltage sensing dye.
Bath Solution #1: (in mM) NaCl 160, KCl 4.5, CaCl2 2, MgCl2 1, HEPES 10, pH 7.4 with NaOH, Glucose 10.
Chloride-free bath solution: Chloride salts in Bath Solution #1 (above) are substituted with gluconate salts.
NIH3T3 mouse fibroblasts stably expressing F508del were used for optical measurements of membrane potential. The cells were maintained at 37° C. in 5% CO2 and 90% humidity in Dulbecco's modified Eagle's medium supplemented with 2 mM glutamine, 10% fetal bovine serum, 1×NEAA, β-ME, 1× pen/strep, and 25 mM HEPES in 175 cm^2 culture flasks. For all optical assays, the cells were seeded at 12,000 cells/well in 384-well matrigel-coated plates and cultured for 18-24 hrs at 37° C. for the potentiator assay. For the correction assay, the cells were cultured at 37° C. with and without compounds for 18-24 hours.

Data set [2] is described as follows: MDCK-Wild Type permeability, 96 well + 0.1% BSA. In kind it is in vitro ADME. The note with it: dog, MDCK, A-B direction, read-out: MDCK-Wild Type-Permeability 96 well + 0.1% BSA Papp compound (A-B).
For data set [3], the system named is Rat hepatocytes. The experiment in a line: Hepatocyte clearance, rat hepatocytes. Type of data set: in vitro ADME. The conditions noted are these: percent unchanged.
The nature of data set [4]: Rat IV and PO PK studies. In kind it is in vivo, male Sprague-Dawley rats. The note with it: for RAT PLASMA-RAW IV-bolus CL_drg: nominal 3.0 mg/kg; for RAT PLASMA-RAW PO % F_drg / AUC(0-inf): nominal 3 mg/kg, PO; for AUC(0-inf): male, Sprague-Dawley, plasma, read-out: RAT PLASMA-RAW PO AUC (0-inf)_drg. Here is the method: C. Experimental Protocol for Rat IV and PO PK Studies
The tested compound was administered to male Sprague-Dawley rats as a single nominal intravenous dose of 3.0 mg/kg as a solution in 10% NMP, 10% solution, 15% EtOH, 35% PEG400 and 30% D5W. The tested compound was also administered to male Sprague-Dawley rats at single nominal oral dose of 3 mg/kg as a solution in 5% NMP, 30% PEG400, 10% TPGS, 5% PVP-K30 at 5 mL/kg dose volume. Analyses of plasma and dose preparations were performed using LC/MS/MS.
Plasma concentration-time profiles of the tested compound in Sprague-Dawley rats at scheduled (nominal) sampling times were analyzed by noncompartmental pharmacokinetic methods using PK function within Watson LIMS software, Version 7.4.2 (Thermo Scientific Inc, Waltham, Mass.). AUC values were calculated using the linear trapezoidal rule.

The target in data set [5] is T2, human PXR (Homo sapiens, UniProt O75469).
T2 construct: host or cells: DPX-2 cell line (derived from HepG2)
T2 sequence (O75469 1-434): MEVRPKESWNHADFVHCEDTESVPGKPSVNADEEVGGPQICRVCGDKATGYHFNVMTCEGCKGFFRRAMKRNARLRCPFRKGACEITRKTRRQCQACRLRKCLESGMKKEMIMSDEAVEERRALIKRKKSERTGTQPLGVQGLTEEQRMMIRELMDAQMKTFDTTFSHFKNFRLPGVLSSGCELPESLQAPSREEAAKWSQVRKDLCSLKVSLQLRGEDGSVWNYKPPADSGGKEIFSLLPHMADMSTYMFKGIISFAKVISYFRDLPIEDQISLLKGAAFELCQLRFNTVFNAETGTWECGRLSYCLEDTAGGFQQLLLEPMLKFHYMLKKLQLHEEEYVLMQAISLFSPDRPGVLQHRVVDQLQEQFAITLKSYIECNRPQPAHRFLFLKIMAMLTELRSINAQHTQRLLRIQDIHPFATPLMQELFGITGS
As to the kind of experiment: PXR assay: PXR mediated CYP3A4 induction in DPX-2 cell line. In kind it is cell-based. The note with it: DPX-2 cells. Here is the method: D. Experimental Protocol for PXR Assay
The propensity for PXR mediated CYP3A4 induction is assessed using the DPX-2 cell line in vitro. This cell line, which has been licensed from Puracyp Inc. was derived from HepG2 cells and has been stably transfected with genes encoding human PXR as well as a modified luciferase reporter linked to the CYP3A4 promoter region and related distal and proximal enhancers.
The assay is run in 384 well format and each test article is administered in 11 doses ranging from 0.1 to 60 μM. On day 1, DPX-2 cells which have previously been expanded in-house and cryopreserved are thawed and seeded in tissue culture plates. The following day, media is changed and cells are cultured in media containing test article, vehicle control or the positive control compound, the clinically validated CYP3A4 inducer rifampicin. Cells are cultured in the presence of test article for 48 hours and then cell viability is assessed using fluorescence based assay (Cell Titer-Fluor, Promega) with an EnVision Plate Reader (PerkinElmer). Subsequently, CYP3A4 transactivation, which is proportional to luciferase activity, is measured by reading luminescense using the Promega One-Glo reagent system using the same plate reader.
Data processing within the Genedata software package allows reporting of max fold induction compared to vehicle control, an EC50 value for CYP3A4 inducers and an 11 point-dose response curve.

T1 sequence (P13569 with tags, fused parts or gaps DEL508-508): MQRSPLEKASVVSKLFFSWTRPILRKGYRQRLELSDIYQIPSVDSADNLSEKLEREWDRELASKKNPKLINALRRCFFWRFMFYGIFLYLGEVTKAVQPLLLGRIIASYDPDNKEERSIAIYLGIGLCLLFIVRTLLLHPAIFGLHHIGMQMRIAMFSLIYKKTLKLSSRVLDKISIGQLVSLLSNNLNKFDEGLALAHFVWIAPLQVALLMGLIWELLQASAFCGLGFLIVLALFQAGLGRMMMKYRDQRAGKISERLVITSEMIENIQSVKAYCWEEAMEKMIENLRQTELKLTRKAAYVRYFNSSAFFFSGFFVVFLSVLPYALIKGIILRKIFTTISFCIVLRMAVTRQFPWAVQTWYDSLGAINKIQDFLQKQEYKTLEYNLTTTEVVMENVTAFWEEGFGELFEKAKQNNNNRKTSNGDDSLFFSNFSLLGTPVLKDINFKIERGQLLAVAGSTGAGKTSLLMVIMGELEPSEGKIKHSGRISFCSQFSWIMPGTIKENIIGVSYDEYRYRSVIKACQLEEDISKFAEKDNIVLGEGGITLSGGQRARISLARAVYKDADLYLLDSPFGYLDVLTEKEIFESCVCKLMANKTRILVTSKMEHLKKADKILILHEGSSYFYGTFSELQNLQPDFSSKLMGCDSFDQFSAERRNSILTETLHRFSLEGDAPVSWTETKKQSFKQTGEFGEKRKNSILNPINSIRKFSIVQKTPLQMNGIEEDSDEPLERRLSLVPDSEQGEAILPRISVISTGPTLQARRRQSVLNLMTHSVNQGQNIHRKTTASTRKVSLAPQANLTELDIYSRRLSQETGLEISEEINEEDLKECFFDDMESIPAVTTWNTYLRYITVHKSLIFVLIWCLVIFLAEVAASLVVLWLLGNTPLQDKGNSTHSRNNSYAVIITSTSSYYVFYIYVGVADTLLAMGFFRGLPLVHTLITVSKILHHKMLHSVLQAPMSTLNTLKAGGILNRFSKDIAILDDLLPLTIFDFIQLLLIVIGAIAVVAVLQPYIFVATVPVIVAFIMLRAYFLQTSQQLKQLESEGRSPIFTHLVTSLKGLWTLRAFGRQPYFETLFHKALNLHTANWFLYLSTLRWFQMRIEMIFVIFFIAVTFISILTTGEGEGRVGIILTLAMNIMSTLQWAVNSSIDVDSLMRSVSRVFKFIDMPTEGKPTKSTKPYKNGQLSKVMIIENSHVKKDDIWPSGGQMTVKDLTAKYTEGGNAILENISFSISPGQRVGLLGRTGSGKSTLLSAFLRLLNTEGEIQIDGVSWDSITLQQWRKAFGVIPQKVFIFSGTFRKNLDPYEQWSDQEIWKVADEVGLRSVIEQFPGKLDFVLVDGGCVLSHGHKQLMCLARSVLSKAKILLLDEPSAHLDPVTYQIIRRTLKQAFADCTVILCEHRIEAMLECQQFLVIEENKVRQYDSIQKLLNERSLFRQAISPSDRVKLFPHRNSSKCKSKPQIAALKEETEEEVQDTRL

Regarding `Cc1c(S(=O)(=O)NC(=O)c2ccc(-n3ccc(OCC4C(C)(C)C4(C)C)n3)nc2N2C[C@@H](C)CC2(C)C)cnn1C` [Compound 21, N-(1,5-dimethylpyrazol-4-yl)sulfonyl-6-[3-[(2,2,3,3-tetramethylcyclopropyl)methoxy]pyrazol-1-yl]-2-[(4S)-2,2,4-trimethylpyrrolidin-1-yl]pyridine-3-carboxamide], in data set [1], the EC50 worked out at 520 nM. Besides, the Papp A→B in data set [2] was found to be 3 ×10⁻⁶ cm/s. The “Hepatocyte clearance-Rat Rat hepatocytes CL pct_unchanged” value in data set [3] is given as 0%. Moreover, in data set [4], the “RAT PLASMA-RAW IV-bolus CL_drg” value was 6.7 mL/min/kg, the “RAT PLASMA-RAW PO % F_drg” value was 47% and the AUC(0-inf) was 3900 ng·h/mL. The “CYP3A4 Induction-PXR human PXR internal Max % Activity” value in data set [5] was determined as 1%.

As for `Cc1c(S(=O)(=O)NC(=O)c2ccc(-n3ccc(OCCC4(C(F)(F)F)CC4)n3)nc2N2C[C@@H](C)CC2(C)C)cnn1C` [Compound 14, N-(1,5-dimethylpyrazol-4-yl)sulfonyl-6-[3-[2-[1-(trifluoromethyl)cyclopropyl]ethoxy]pyrazol-1-yl]-2-[(4S)-2,2,4-trimethylpyrrolidin-1-yl]pyridine-3-carboxamide], the EC50 in data set [1] came out at 280 nM. For the same compound, in data set [2], the Papp A→B came to 2.8 ×10⁻⁶ cm/s. In data set [3], the “Hepatocyte clearance-Rat Rat hepatocytes CL pct_unchanged” value is 50%. In data set [4], the “RAT PLASMA-RAW IV-bolus CL_drg” value was found to be 3.9 mL/min/kg, the “RAT PLASMA-RAW PO % F_drg” value turned out to be 61% and the AUC(0-inf) was 10500 ng·h/mL. For the same compound, the “CYP3A4 Induction-PXR human PXR internal Max % Activity” value in data set [5] turned out to be 2%.

In the case of `Cc1c(S(=O)(=O)NC(=O)c2ccc(-n3ccc(OCC(C)(C)C(F)(F)F)n3)nc2N2C[C@@H](C)CC2(C)C)cnn1C` [Compound 13, N-(1,5-dimethylpyrazol-4-yl)sulfonyl-6-[3-(3,3,3-trifluoro-2,2-dimethyl-propoxy)pyrazol-1-yl]-2-[(4S)-2,2,4-trimethylpyrrolidin-1-yl]pyridine-3-carboxamide], the EC50 in data set [1] was 130 nM. Moreover, the Papp A→B in data set [2] was 11.7 ×10⁻⁶ cm/s. For the same compound, in data set [3], the “Hepatocyte clearance-Rat Rat hepatocytes CL pct_unchanged” value came to 117%. Moreover, in data set [4], the “RAT PLASMA-RAW IV-bolus CL_drg” value was found to be 3 mL/min/kg, the “RAT PLASMA-RAW PO % F_drg” value is 65% and the AUC(0-inf) stood at 13400 ng·h/mL. For the same compound, the “CYP3A4 Induction-PXR human PXR internal Max % Activity” value in data set [5] is on record as 4%.

Turning to `Cc1nn(C)c(C)c1S(=O)(=O)NC(=O)c1ccc(-n2ccc(OCCC3(C(F)(F)F)CC3)n2)nc1N1C[C@@H](C)CC1(C)C` [Compound 18, 6-[3-[2-[1-(trifluoromethyl)cyclopropyl]ethoxy]pyrazol-1-yl]-N-(1,3,5-trimethylpyrazol-4-yl)sulfonyl-2-[(4S)-2,2,4-trimethylpyrrolidin-1-yl]pyridine-3-carboxamide], the EC50 in data set [1] came to 170 nM. In addition, in data set [2], the Papp A→B was 8 ×10⁻⁶ cm/s. Further, the “Hepatocyte clearance-Rat Rat hepatocytes CL pct_unchanged” value in data set [3] stood at 0%. For the same compound, the “CYP3A4 Induction-PXR human PXR internal Max % Activity” value in data set [5] was 5%.

As to `Cc1nn(C)cc1S(=O)(=O)NC(=O)c1ccc(-n2ccc(OCCC(C3CC3)C3CC3)n2)nc1N1C[C@@H](C)CC1(C)C` [Compound 38, 6-[3-(3,3-dicyclopropylpropoxy)pyrazol-1-yl]-N-(1,3-dimethylpyrazol-4-yl)sulfonyl-2-[(4S)-2,2,4-trimethylpyrrolidin-1-yl]pyridine-3-carboxamide], in data set [1], the EC50 was 110 nM. For the same compound, the Papp A→B in data set [2] amounted to 1 ×10⁻⁶ cm/s. For the same compound, in data set [3], the “Hepatocyte clearance-Rat Rat hepatocytes CL pct_unchanged” value was determined as 56%. For the same compound, the “CYP3A4 Induction-PXR human PXR internal Max % Activity” value in data set [5] was 2%.

Turning to `C[C@@H]1CN(c2nc(-n3ccc(OCC4(C(F)(F)F)CC4)n3)ccc2C(=O)NS(=O)(=O)c2cnn(C(C)(C)C)c2)C(C)(C)C1` [Compound 8, N-(1-tert-butylpyrazol-4-yl)sulfonyl-6-[3-[[1-(trifluoromethyl)cyclopropyl]methoxy]pyrazol-1-yl]-2-[(4S)-2,2,4-trimethylpyrrolidin-1-yl]pyridine-3-carboxamide], in data set [1], the EC50 is 400 nM. For the same compound, in data set [2], the apical-to-basolateral permeability (Papp A→B) worked out at 3.2 ×10⁻⁶ cm/s. Further, the “Hepatocyte clearance-Rat Rat hepatocytes CL pct_unchanged” value in data set [3] came to 62%. In addition, the “CYP3A4 Induction-PXR human PXR internal Max % Activity” value in data set [5] is recorded as 10%.

As for `C[C@@H]1CN(c2nc(-n3ccc(OCC(C)(C)C)n3)ccc2C(=O)NS(=O)(=O)c2ccc[nH]c2=O)C(C)(C)C1` [B, reference compound], the EC50 in data set [1] worked out at 260 nM. Also, in data set [2], the Papp A→B was 0.4 ×10⁻⁶ cm/s. Further, in data set [3], the “Hepatocyte clearance-Rat Rat hepatocytes CL pct_unchanged” value is on record as 13%. For the same compound, the “CYP3A4 Induction-PXR human PXR internal Max % Activity” value in data set [5] worked out at 3%.

Take `Cc1nn(C)c(C)c1S(=O)(=O)NC(=O)c1ccc(-n2ccc(OCC3(C(F)(F)F)CC3)n2)nc1N1C[C@@H](C)CC1(C)C` [Compound 16, 6-[3-[[1-(trifluoromethyl)cyclopropyl]methoxy]pyrazol-1-yl]-N-(1,3,5-trimethylpyrazol-4-yl)sulfonyl-2-[(4S)-2,2,4-trimethylpyrrolidin-1-yl]pyridine-3-carboxamide]: in data set [1], the EC50 was found to be 400 nM. In data set [2], the Papp A→B was found to be 3.9 ×10⁻⁶ cm/s. In addition, the “Hepatocyte clearance-Rat Rat hepatocytes CL pct_unchanged” value in data set [3] amounted to 10%. Moreover, the “CYP3A4 Induction-PXR human PXR internal Max % Activity” value in data set [5] is on record as 13%.

As to `Cc1nn(C)cc1S(=O)(=O)NC(=O)c1ccc(-n2ccc(OCC3C4CCC3CC4)n2)nc1N1C[C@@H](C)CC1(C)C` (stereo partly drawn) [Compound 52, N-(1,3-dimethylpyrazol-4-yl)sulfonyl-6-[3-(norbornan-7-ylmethoxy)pyrazol-1-yl]-2-[(4S)-2,2,4-trimethylpyrrolidin-1-yl]pyridine-3-carboxamide], in data set [1], the EC50 was 170 nM. The Papp A→B in data set [2] was determined as 2 ×10⁻⁶ cm/s. Also, the “Hepatocyte clearance-Rat Rat hepatocytes CL pct_unchanged” value in data set [3] came out at 18%. Moreover, the “CYP3A4 Induction-PXR human PXR internal Max % Activity” value in data set [5] came to 2%.

As for `Cc1nn(C)cc1S(=O)(=O)NC(=O)c1ccc(-n2ccc(OCC3(C(F)(F)F)CC3)n2)nc1N1CC(C(C)(C)C)CC1(C)C` (single isomer, unassigned) [Compound 54, 2-(4-tert-butyl-2,2-dimethyl-pyrrolidin-1-yl)-N-(1,3-dimethylpyrazol-4-yl)sulfonyl-6-[3-[[1-(trifluoromethyl)cyclopropyl]methoxy]pyrazol-1-yl]pyridine-3-carboxamide], in data set [1], the EC50 worked out at 50 nM. For the same compound, the Papp A→B in data set [2] is 1.1 ×10⁻⁶ cm/s. Moreover, the “Hepatocyte clearance-Rat Rat hepatocytes CL pct_unchanged” value in data set [3] is listed as 30%. The “CYP3A4 Induction-PXR human PXR internal Max % Activity” value in data set [5] came out at 5%.

As usually defined, the EC50 is the concentration needed to bring the measured effect to its halfway point. A word on the Papp A→B: it is the apparent permeability from the apical to the basolateral side of a cell layer. For orientation: AUC(0-inf) means the area under the concentration-time curve extrapolated to infinity.
